Results taken from ChEMBL document CHEMBL1201862, “PubChem BioAssay data set” (2004).
The source made the active and inactive calls.

Assays:
[1] = molecular target: T1, SUMO-activating enzyme (Homo sapiens, UniProt Q9UBT2); assay: blockers of UBC9-mediated SUMO conjugation – biochemical, AlphaScreen, SUMOylation inhibitor project, confirmation (AID 2018); type: functional
[2] = molecular target: T1, SUMO-activating enzyme; assay: blockers of SAE1/SAE2–UBC9 SUMO transfer – biochemical, HTRF, uHTS, primary screen (AID 2006); type: protein-complex assay
[3] = molecular target: T2, Calpain-2 catalytic subunit (Sus scrofa, UniProt P43367); assay: m-calpain protease blockers, concentration series – biochemical, fluorogenic peptide substrate, dose response (AID 1420); type: functional
T2 sequence (P43367 whole entry): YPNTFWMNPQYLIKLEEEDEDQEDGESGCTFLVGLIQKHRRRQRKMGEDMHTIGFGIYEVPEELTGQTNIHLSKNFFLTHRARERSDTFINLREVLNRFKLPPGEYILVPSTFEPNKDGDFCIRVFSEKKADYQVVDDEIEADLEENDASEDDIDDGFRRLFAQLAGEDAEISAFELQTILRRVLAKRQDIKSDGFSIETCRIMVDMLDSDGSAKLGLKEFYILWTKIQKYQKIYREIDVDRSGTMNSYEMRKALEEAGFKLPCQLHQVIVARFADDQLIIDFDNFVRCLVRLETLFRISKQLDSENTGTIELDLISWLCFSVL

[4] = molecular target: T3, Aminopeptidase N (Plasmodium falciparum FcB1/Columbia, UniProt O96935); assay: malaria alanyl aminopeptidase activity blockers – biochemical, fluorogenic H-Leu-NHMec substrate, 1536-well (AID 1445); set-up: species or system Plasmodium falciparum 3D7, 3D7
T3 sequence (O96935 whole entry): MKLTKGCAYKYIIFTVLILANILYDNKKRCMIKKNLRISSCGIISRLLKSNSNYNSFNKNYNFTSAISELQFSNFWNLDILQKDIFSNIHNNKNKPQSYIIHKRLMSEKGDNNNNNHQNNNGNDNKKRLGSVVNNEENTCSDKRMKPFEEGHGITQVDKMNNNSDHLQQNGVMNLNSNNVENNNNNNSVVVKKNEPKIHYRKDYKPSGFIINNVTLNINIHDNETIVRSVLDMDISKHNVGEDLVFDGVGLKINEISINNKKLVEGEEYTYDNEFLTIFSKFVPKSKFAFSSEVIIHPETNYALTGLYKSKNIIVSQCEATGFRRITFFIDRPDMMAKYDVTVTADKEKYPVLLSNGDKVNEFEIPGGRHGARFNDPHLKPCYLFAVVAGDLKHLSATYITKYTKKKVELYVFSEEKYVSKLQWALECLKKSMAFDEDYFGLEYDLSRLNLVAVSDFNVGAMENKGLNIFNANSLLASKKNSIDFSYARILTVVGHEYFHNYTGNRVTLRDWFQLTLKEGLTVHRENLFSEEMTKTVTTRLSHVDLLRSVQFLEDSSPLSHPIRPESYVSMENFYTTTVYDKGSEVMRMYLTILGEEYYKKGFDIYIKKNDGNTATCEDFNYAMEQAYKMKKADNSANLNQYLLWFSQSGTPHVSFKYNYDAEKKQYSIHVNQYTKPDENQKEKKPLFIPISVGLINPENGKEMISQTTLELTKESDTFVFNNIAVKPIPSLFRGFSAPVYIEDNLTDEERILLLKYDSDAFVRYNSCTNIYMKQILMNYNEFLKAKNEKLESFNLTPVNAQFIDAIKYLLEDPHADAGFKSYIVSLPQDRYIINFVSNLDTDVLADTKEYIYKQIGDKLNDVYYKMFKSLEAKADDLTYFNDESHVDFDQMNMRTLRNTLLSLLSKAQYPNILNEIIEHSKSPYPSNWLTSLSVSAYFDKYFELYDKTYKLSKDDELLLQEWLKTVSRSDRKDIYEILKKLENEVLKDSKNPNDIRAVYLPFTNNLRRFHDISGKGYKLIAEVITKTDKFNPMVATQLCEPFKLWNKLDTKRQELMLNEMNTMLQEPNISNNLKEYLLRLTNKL

[5] = molecular target: T4, Trace amine-associated receptor 1 (Homo sapiens, UniProt Q96RJ0); assay: Counterscreen for agonists of the human trace amine associated receptor 1 (hTAAR1): Fluorescence-based cell-based high throughput dose response assay to identify hTAAR1 agonist that also desensitize TAAR1 receptor response.; type: functional
T4 sequence (Q96RJ0 whole entry): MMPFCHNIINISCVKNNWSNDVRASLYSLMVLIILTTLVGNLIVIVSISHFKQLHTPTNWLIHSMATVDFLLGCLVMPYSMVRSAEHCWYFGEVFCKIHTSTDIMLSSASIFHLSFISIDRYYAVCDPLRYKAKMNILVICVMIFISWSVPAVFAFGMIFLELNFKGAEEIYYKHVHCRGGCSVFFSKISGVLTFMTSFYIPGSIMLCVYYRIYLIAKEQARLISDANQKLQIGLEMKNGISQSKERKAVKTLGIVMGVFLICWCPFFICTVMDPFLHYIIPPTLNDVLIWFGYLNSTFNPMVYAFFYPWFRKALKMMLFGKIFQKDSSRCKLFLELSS

[6] = molecular target: Peroxisome proliferator-activated receptor gamma/Nuclear receptor corepressor 2 (Homo sapiens, UniProt P37231+Q9Y618); type: functional
[7] = molecular target: Photoreceptor-specific nuclear receptor (Homo sapiens, UniProt Q9Y5X4); type: functional;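 note: potency for compounds that break the NR2E3 corepressor complex and count as activators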
[8] = cells; type: functional, cell-based
[9] = cells; type: functional, cell-based; remark: listed apart in the source
[10] = molecular target: T4, Trace amine-associated receptor 1; assay: Fluorescence-based cell-based high throughput dose response assay to identify agonists of the human trace amine associated receptor 1 (TAAR1).; type: functional
[11] = molecular target: T5, Leucine aminopeptidase (Plasmodium falciparum 3D7, UniProt Q8IL11); assay: P. falciparum M17LAP inhibitors, primary screen, biochemical, fluorogenic H-Leu-NHMec substrate, 1536-well (AID 1619); type: functional
T5 sequence (Q8IL11 whole entry): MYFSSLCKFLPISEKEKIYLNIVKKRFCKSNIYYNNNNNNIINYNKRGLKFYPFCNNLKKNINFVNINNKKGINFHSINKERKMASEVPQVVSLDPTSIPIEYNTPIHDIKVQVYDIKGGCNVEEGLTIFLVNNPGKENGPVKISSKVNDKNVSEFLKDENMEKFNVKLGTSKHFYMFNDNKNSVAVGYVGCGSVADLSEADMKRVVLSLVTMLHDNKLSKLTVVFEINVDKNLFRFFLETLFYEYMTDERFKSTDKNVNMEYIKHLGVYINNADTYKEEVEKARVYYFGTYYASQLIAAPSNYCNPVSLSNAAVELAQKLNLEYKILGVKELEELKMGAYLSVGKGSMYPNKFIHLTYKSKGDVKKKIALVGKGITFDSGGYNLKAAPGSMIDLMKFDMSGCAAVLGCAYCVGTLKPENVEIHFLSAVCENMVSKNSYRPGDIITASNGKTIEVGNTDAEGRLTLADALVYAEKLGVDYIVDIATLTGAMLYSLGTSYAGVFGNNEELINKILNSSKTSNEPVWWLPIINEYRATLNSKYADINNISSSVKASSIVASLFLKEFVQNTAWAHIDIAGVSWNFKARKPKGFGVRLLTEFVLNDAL

[12] = molecular target: Voltage-dependent T-type calcium channel subunit alpha-1H (Homo sapiens, UniProt O95180); type: functional;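 note: channel activity triggered by adding a high calcium stimulation buffer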
[13] = molecular target: T6, Short transient receptor potential channel 4 (Mus musculus, UniProt Q9QUQ5); assay: block of DAMGO-driven TRPC4 calcium entry – cell-based, HEK293 TRPC4/mu-opioid, Fluo-4 calcium, dose response (AID 434942); type: functional;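 note: potency of inhibitors blocking the TRPC4 calcium response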
T6 sequence (Q9QUQ5 whole entry): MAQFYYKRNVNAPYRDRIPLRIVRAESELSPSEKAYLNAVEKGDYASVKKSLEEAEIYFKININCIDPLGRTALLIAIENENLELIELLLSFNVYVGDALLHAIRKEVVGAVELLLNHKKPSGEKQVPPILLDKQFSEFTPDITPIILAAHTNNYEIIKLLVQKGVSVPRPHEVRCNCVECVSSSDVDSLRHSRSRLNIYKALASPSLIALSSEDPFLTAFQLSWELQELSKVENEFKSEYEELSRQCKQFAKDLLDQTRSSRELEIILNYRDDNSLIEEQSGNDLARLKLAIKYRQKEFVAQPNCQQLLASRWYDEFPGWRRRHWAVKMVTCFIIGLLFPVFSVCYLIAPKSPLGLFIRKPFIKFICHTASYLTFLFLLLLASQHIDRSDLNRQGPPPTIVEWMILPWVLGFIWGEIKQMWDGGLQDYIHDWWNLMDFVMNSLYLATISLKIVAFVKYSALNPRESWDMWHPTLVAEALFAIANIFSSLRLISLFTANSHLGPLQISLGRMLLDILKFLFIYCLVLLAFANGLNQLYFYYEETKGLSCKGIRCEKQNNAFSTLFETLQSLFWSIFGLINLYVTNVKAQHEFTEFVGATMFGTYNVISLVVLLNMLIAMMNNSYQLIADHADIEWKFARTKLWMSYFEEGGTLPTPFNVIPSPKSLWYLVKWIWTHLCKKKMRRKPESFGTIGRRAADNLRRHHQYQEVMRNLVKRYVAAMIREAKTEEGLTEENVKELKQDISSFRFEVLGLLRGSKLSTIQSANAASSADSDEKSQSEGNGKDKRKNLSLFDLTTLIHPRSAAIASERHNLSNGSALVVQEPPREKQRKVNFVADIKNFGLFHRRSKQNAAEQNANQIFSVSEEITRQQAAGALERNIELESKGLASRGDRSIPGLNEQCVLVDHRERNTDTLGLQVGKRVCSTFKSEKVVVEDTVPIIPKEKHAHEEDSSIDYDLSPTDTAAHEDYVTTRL

[14] = molecular target: T7, Zinc finger protein mex-5 (Caenorhabditis elegans, UniProt Q9XUB2); assay: potency of MEX-5 RNA-binding blockers – biochemical, C. elegans, fluorescence polarization, dose response (AID 1960)
T7 sequence (Q9XUB2 whole entry): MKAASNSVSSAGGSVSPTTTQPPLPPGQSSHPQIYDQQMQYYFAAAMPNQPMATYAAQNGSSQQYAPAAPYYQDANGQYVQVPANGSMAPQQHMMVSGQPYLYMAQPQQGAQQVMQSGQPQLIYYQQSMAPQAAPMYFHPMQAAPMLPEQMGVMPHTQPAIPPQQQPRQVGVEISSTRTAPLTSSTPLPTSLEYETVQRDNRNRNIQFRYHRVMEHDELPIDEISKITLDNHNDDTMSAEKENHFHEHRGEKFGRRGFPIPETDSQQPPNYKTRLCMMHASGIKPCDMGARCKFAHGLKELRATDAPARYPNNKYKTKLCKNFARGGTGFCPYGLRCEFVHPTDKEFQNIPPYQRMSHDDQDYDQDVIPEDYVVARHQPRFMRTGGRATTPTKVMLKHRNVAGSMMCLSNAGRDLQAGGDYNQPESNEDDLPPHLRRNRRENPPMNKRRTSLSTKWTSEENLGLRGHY

[15] = molecular target: Genome polyprotein (dengue virus type 2, UniProt P29990); assay: flavivirus cap methylation enzyme inhibition – biochemical, confirmation dose response, primary screen (AID 588689); type: functional
[16] = molecular target: T8, RNA-binding protein pos-1 (Caenorhabditis elegans, UniProt G5EF15); assay: disruptors of C. elegans POS-1 RNA interaction – biochemical, fluorescence polarization, dose response (AID 1964);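 note: purified POS-1 fused to maltose binding protein made in E. coli; potency of compounds blocking POS-1 binding to fluorescent RNA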
T8 sequence (G5EF15 whole entry): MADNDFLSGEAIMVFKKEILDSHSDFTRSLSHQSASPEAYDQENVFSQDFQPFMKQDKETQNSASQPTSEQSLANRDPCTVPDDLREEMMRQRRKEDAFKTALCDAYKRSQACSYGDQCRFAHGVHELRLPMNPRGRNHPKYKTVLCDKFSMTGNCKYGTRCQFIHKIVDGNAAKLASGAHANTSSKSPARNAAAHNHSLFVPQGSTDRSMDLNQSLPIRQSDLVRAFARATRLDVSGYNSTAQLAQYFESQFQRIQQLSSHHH

[17] = molecular target: Melanin-concentrating hormone receptor 1 (Homo sapiens, UniProt Q99705); assay: Late-stage fluorescence-based counterscreen for antagonists of the G-protein coupled receptor 7 (GPR7): cell-based dose response assay to identify antagonists of the melanin-concentrating hormone receptor 1 (MCHR1). [Related pubchem assays (depositor defined):AID1861, AID1880, AID1952, AID2148, AID2251, AID2257, AID485339]; type: functional;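 note: stimulated with 30 nM MCH peptide agonist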
Sequence of Melanin-concentrating hormone receptor 1 (Q99705 whole entry): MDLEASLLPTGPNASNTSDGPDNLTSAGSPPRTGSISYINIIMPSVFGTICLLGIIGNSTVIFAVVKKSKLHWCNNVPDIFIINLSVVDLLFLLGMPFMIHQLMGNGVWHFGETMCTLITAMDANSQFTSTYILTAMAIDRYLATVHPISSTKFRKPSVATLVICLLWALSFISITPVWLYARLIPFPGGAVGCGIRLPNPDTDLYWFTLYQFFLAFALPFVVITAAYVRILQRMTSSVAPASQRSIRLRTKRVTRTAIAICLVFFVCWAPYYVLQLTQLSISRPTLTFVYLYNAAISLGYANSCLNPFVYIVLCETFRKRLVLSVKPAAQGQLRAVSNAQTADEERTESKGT

Sequence of Voltage-dependent T-type calcium channel subunit alpha-1H (O95180 whole entry): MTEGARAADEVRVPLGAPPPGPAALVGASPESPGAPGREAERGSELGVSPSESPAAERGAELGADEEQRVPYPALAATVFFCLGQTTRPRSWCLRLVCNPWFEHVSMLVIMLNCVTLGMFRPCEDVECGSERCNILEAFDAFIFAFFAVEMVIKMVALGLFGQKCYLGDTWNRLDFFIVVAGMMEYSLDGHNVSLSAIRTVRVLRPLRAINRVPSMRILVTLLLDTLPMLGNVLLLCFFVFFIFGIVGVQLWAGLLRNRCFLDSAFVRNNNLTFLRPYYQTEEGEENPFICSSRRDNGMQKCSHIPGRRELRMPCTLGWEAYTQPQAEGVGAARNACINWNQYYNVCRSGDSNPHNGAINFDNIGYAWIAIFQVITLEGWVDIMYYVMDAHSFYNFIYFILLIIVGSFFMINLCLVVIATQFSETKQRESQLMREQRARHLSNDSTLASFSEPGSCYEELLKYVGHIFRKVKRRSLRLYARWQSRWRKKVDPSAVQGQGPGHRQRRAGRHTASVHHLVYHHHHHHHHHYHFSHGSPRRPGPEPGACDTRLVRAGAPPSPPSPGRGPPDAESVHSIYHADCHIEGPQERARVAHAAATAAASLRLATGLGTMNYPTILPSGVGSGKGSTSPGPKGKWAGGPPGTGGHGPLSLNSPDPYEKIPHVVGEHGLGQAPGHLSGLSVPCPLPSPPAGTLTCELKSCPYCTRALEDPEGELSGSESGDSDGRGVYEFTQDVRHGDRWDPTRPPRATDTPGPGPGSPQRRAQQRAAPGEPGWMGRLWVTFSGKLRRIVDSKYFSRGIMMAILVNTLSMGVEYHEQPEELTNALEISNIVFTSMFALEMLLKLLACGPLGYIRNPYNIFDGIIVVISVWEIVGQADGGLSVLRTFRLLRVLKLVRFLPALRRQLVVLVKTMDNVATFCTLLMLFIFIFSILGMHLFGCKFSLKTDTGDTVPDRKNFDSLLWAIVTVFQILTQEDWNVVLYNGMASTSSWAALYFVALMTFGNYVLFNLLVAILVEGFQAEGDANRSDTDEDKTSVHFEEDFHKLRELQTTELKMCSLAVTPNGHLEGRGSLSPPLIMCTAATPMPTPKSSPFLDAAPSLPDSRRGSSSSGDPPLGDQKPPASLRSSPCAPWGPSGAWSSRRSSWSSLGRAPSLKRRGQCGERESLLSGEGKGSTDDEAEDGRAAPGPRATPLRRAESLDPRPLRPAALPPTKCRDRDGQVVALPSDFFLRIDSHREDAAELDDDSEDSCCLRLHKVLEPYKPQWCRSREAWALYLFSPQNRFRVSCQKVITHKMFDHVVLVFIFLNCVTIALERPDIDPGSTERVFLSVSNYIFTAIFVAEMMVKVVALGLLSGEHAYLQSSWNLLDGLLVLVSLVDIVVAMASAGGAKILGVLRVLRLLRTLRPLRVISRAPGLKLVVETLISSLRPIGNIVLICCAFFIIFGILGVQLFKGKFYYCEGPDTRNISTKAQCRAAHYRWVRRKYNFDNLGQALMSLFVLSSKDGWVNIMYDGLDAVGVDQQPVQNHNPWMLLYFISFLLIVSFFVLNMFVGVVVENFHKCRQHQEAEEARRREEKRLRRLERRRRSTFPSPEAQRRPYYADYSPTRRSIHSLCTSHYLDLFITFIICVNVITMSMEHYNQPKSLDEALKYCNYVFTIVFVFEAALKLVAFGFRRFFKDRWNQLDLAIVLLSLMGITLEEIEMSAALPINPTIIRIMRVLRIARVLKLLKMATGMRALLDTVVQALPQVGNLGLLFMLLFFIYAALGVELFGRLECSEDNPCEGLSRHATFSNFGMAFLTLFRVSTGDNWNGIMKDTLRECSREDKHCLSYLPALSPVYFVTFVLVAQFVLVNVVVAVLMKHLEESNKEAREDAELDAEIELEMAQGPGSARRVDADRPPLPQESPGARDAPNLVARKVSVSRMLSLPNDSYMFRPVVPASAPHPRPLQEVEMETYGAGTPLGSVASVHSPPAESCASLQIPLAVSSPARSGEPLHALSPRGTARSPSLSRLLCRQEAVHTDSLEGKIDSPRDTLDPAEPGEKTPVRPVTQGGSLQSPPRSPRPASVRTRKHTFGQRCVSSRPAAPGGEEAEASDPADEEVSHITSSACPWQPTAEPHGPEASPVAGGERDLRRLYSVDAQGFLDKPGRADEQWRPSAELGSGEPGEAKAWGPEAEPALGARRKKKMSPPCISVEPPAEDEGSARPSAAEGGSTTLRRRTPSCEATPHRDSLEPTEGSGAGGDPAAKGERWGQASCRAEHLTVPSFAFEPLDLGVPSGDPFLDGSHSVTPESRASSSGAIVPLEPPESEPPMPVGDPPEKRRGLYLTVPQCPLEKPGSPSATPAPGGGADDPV
T1 sequence (Q9UBE0 whole entry): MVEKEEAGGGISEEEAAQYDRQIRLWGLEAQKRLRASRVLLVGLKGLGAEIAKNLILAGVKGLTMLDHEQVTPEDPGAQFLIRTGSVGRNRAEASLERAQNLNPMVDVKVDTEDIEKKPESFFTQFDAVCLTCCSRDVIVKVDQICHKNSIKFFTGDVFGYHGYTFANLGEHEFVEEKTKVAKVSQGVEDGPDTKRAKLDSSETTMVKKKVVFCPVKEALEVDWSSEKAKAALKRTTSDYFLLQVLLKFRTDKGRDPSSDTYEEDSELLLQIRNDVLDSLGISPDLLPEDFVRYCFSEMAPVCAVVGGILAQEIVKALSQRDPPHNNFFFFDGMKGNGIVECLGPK
T1 sequence (Q9UBT2 whole entry): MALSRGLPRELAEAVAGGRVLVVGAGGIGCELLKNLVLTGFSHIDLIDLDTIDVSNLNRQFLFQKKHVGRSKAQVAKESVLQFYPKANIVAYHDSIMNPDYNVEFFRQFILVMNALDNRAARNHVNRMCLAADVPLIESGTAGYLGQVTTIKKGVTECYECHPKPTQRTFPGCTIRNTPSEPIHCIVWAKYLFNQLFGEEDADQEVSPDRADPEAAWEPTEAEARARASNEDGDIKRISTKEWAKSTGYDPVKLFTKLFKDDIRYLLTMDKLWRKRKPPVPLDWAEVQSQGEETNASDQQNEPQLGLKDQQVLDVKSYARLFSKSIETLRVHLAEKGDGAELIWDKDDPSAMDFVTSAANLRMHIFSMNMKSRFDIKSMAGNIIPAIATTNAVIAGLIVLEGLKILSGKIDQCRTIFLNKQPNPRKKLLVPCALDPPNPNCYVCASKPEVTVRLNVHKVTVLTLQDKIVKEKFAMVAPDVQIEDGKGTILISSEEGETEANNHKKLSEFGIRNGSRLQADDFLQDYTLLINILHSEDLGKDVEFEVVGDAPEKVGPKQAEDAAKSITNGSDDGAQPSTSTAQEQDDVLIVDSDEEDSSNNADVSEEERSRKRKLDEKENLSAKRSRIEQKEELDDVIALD
Sequence of Photoreceptor-specific nuclear receptor (Q9Y5X4 whole entry): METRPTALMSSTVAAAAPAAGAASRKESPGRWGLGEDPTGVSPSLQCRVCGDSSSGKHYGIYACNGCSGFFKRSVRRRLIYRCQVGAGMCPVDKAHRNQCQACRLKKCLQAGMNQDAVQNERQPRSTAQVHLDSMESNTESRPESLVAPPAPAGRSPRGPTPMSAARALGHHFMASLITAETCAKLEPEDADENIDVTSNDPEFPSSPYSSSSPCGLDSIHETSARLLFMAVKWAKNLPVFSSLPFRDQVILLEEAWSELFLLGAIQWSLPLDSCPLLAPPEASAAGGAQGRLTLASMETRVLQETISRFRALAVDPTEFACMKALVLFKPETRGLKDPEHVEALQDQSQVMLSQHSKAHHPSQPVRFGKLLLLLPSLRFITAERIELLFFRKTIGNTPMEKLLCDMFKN
Sequence of Genome polyprotein (P29990 2492-3391 limits assumed): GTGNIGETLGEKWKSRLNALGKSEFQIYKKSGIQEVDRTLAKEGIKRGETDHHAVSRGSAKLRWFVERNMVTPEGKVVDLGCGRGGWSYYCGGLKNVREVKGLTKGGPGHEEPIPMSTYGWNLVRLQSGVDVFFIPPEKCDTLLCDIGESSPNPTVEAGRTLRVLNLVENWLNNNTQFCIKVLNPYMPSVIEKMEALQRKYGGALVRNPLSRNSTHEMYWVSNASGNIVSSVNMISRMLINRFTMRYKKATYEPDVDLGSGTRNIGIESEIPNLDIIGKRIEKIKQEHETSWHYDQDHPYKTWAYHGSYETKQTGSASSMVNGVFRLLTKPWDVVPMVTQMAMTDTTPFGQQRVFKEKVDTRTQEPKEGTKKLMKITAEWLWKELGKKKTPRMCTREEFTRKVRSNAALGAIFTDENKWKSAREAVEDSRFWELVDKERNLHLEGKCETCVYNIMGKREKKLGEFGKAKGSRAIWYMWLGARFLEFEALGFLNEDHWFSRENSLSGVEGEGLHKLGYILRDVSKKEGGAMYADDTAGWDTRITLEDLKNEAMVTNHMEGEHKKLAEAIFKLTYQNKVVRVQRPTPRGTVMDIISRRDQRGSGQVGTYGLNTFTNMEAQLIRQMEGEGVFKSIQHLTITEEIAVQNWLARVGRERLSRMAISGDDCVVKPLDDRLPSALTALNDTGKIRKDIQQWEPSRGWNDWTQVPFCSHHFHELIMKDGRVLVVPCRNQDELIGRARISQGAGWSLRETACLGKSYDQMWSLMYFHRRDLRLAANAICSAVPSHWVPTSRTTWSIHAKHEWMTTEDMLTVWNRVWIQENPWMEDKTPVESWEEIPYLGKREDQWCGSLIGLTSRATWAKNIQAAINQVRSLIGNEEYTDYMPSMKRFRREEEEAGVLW

O=c1c(C(c2ccccc2)c2c(O)sc3ccccc3c2=O)c(O)sc2ccccc12
IC50 [1]: 4.11 µM (active)
IC50 [2]: 11.3 µM (active)
IC50 [3]: 4.29 µM (not active)

COc1ccc(NC(=O)[C@@H](NC(=O)c2ccccc2)C(C)C)cc1S(=O)(=O)N1CCCCC1
IC50 [4]: 39 µM (active)

CC1NC(=O)NC1CCCCCC(=O)NCCc1ccccc1 (stereo not given)
IC50 [5]: 6.36 µM (active)
IC50 [6]: 3.01 µM (active)
IC50 [7]: 1.06 µM (active)
IC50 [8]: > 29.9 µM (inactive)
EC50 [9]: > 29.9 µM (inactive)
EC50 [10]: 1.93 µM (active)

O=C(CSc1n[nH]c2c3ccccc3nc-2n1)Nc1ccc(S(=O)(=O)Nc2ncccn2)cc1
IC50 [4]: 61.6 µM (active)
IC50 [11]: 28.3 µM (active)

O=C(Nc1ccc2c(c1)OCO2)C1CCN(S(=O)(=O)c2ccc3c(c2)OCCO3)CC1
IC50 [4]: 45.7 µM (active)

COc1ccccc1N1CCN(CC(=O)Nc2ccc(Cl)c(C(F)(F)F)c2)CC1
EC50 [12]: 4.08 µM (active)

O=C(Nc1ccccc1Oc1cccnc1)C1CCCN(Cc2cccc(Cl)c2)C1 (stereo not given)
EC50 [13]: 3.76 µM (active)

COC(=O)c1c(Cl)c2n3ccccc3c(C)c(-c3ccccc3)c-2c1C(=O)OC
EC50 [14]: 25.8 µM (active)
IC50 [6]: 0.0555 µM (active)
IC50 [7]: 0.303 µM (active)
IC50 [15]: 74.5 µM (active)
EC50 [16]: 47.5 µM (active)

Cc1ccc(N2CCN(C(=O)c3ccccc3F)CC2)c(C)c1
EC50 [13]: 5.96 µM (active)

O=C(Cc1ccccc1F)Nc1nc(-c2cccs2)cs1
EC50 [12]: 1.98 µM (active)

CC(C)N(Cc1nc(-c2ccc(Cl)cc2)no1)C(=O)CCCN1C(=O)c2ccccc2C1=O
EC50 [12]: 3.89 µM (active)

CCc1cnn(-c2ccc(C(C)C)cc2)c(=O)c1Oc1ccc(OC)cc1
IC50 [17]: 12.8 µM (inactive)

COc1ccc(Oc2c(C3CC3)cnn(-c3ccc(C)cc3)c2=O)cc1
IC50 [17]: 5.4 µM (active)
